Read-outs that look alike come from different tables or passages of the source.
Assays:
[1] = test system: chloroform induced fibrillation; assay: Protection against chloroform induced fibrillation in mice, subcutaneous, potency relative to lidocaine (Table IV); assay type: in vivo; settings: s.c., 20 min, statistical mean (confidence limits)
Experimental: (§1) The experiments on mice were performed according to a modification of the method described by J. W. Lawson, "Antiarrhythmic activity of some isoquinoline derivatives determined by a rapid screening procedure in the mouse", J. Pharm. Exp. Therap. Vol. 160, pp. 22-31 (1968). This method is based upon the observation that when an unanesthetized, untreated mouse is exposed to chloroform vapor its respiration soon ceases and at that time both electrocardiographic and visual inspection reveal that the cardiac ventricles are fibrillating. If the mouse is treated appropriately with known antiarrhythmic agents prior to exposure to chloroform, the respiratory failure is not accompanied by ventricular fibrillation.
The procedure used was a modification of the method previously described. The modification involved using a standard time of 20 minutes for each test run and four different doses of the same drug. Route of administration was subcutaneous.

mice [2] = settings: mouse, in vivo, po, 1440 min
cardiac arrhythmias = settings: in vivo; cited from earlier work
mice [3] = assay: Ataxia just before CHCl3 challenge in mice, oral (Table I); assay type: in vivo, female Swiss albino mice (HAM/ICR)
Experimental: as §1

ventricular fibrillation [4] = assay: Protection against chloroform induced ventricular fibrillation in mice, oral (Table I); assay type: in vivo, female Swiss albino mice (HAM/ICR)
Experimental: as §1

[5] = Acute oral toxicity in mice (24 Hr. mortality); settings: mouse, in vivo, po
[6] = test system: chloroform-induced arrhythmias; settings: mouse, in vivo
[7] = test system: chloroform-induced arrhythmias; assay: animal or person; settings: Mus musculus
frog sciatic nerve = assay: Local anesthetic effect in vitro on the frog sciatic nerve; settings: 5 min; 20 mM, after 5 minutes; read-out: block of the action potential of the nerve
ventricular arrhythmias [8] = assay: animal or person
Experimental: Tests on dogs with the compound 2-amino-2',6'-propionoxylidide were conducted according to a modification of the method described by A. S. Harris in "Delayed Development of Ventricular Ectopic Rhythms Following Experimental Coronary Occlusions", Circ. Vol. 1, pp. 1318-1328 (1950). In this method the dogs were anesthetized, the heart was exposed, and the anterior descending branch of the left coronary artery was ligated in two stages. The thorax was closed and the dog was allowed to recover from the anesthesia. […] B. B. Clark and J. R. Cummings, "Arrhythmias Following Experimental Coronary Occlusion and Their Response to Drugs", Annals New York Academy of Sciences, Vol. 65, pp. 543-551 (1956). […] The electrocardiographic, cardiovascular and other drug effects were monitored.
The dosage schedule was: 1st hr.: 15 mg/kg/hr; 2nd hr.: 30 mg/kg/hr; 3rd hr.: 60 mg/kg/hr. Infusions were stopped at the first sign of toxicity other than emesis.
The compound 3-amino-2',6'-butyroxylidide was also tested on dogs, according to a modification of the method of Harris as previously described. As in the previously described tests, unanesthetized dogs were supported in canvas slings and were treated either intravenously or orally with doses of 3-amino-2',6'-butyroxylidide. The electrocardiographic, cardiovascular and other drug effects were monitored.

[9] = cited from earlier work
mice [10] = assay: Acute oral toxicity in mice (24 Hr. mortality); settings: oral, mice, 24 hr; dose to kill one of a thousand
pKa = assay type: physicochemical; settings: 23; read-out: pkaa^23
ventricular arrhythmias [11] = assay type: in vivo, dogs
Experimental: Vol. 1, pp. 1318-1328 (1950). […] The electrocardiographic, cardiovascular and other drug effects were monitored.
Table II summarizes the results of oral administration:
Dogs #215 and #220 given 50 mg/kg dose at 0 mins and 100 mg/kg dose at 24
The electrocardiographic, cardiovascular and other drug effects were monitored.

ventricular fibrillation [12] = assay: Protection against chloroform induced fibrillation in the guinea pig, intraperitoneal (Table V); assay type: in vivo; settings: 326 mg/kg i.p., 20 min before chloroform
Experimental: Guinea pigs (250-350 g) were placed individually into a series of 4000 ml beakers containing cotton and 100 ml of chloroform. After cessation of respiration the animal was removed from the beaker, the thorax was opened and the heart was examined for the presence or absence of ventricular fibrillation. The nature of the cardiac rhythm was confirmed by electrocardiographic recordings.
A single dose (about 1-5 ml) of each test compound was administered intraperitoneally by a 25 gauge needle twenty minutes before the animals were placed in chloroform.

[13] = dose LD0.1, drug given 10 min before CHCl3 challenge
[14] = dose LD0.1, drug given 20 min before CHCl3 challenge
[15] = dose LD0.1, drug given 40 min before CHCl3 challenge
[16] = dose LD0.1, drug given 80 min before CHCl3 challenge

CCc1cccc(C)c1NC(=O)CCN [3-amino-2'-ethyl-6'-methylpropionanilide]
Relative Potency (ED50 test compound/ED50 lidocaine) [1]: 0.29 (0.09 - 0.81)

Cc1cccc(C)c1NC(=O)[C@@H](C)N [2-amino-2',6'-propionoxylidide]
Relative Potency (ED50 test compound/ED50 lidocaine) [1]: 0.45 (0.26 - 0.78)

CCN(CC)CCNC(=O)c1ccc(N)cc1 [Procainamide]
24 Hr. Mortality LD0.1 (mice [2]): 248 mg/kg
side effects (cardiac arrhythmias): exhibit undesirable side effects
Proportion of mice having ataxia just before CHCl3 challenge (mice [3]; dose LD0.1, 5 min): 0/10
Proportion of mice having ataxia just before CHCl3 challenge (mice [3]; dose LD0.1, 10 min): 0/10
Proportion of mice having ataxia just before CHCl3 challenge (mice [3]; dose LD0.1, 20 min): 0/10
Proportion of mice protected against fibrillation at LD0.1 (ventricular fibrillation [4]; dose LD0.1, drug given 5 min before CHCl3 challenge): 0/10
Proportion of mice protected against fibrillation at LD0.1 (ventricular fibrillation [4]; [13]): 1/10
Proportion of mice protected against fibrillation at LD0.1 (ventricular fibrillation [4]; [14]): 0/10
LD50 at 24 h [5]: 643 mg/kg

CCc1cccc(CC)c1NC(=O)CN [2-amino-2', 6'-diethylacetanilide, 2-amino-2',6'-diethylacetanilide]
Relative Potency (ED50 test compound/ED50 lidocaine) [1]: 0.22 (0.13 - 0.36)

CCNC(C)C(=O)Nc1c(C)cc(C)cc1C (centres unmarked)
incidence of ataxia [6]: 100%
incidence of convulsions [6]: 90%
ED50 [7]: 162 mg/kg

CCN(CC)CC(=O)Nc1c(C)cccc1C [Lidocaine, 2-diethylamino-2',6'-acetoxylidide]
inhibition at 20000 µM (frog sciatic nerve): 78%
Number of dogs showing antiarrhythmic effect (ventricular arrhythmias [8]; i.v. infusion 15, 30, 60 mg/kg/hr, dogs tested: lidocaine 2, test compound 1, abnormal beats less than 5% of total): 2
Proportion of mice having ataxia just before CHCl3 challenge (mice [3]; dose LD0.1, 10 min): 0/10
Proportion of mice having ataxia just before CHCl3 challenge (mice [3]; dose LD0.1, 20 min): 9/10
Proportion of mice having ataxia just before CHCl3 challenge (mice [3]; dose LD0.1, 40 min): 0/10
Proportion of mice having ataxia just before CHCl3 challenge (mice [3]; dose LD0.1, 80 min): 0/10
Proportion of mice protected against fibrillation at LD0.1 (ventricular fibrillation [4]; [13]): 9/10
Proportion of mice protected against fibrillation at LD0.1 (ventricular fibrillation [4]; [14]): 10/10
Proportion of mice protected against fibrillation at LD0.1 (ventricular fibrillation [4]; [15]): 7/10
Proportion of mice protected against fibrillation at LD0.1 (ventricular fibrillation [4]; [16]): 0/10
duration of blood levels ([9]; in vivo): fairly short
levels of the drug in the blood ([9]; oral): low levels of the drug in the blood
oral effectiveness ([9]; oral): not orally effective
loss of the drug after oral administration ([9]; oral, probably due to functions of the liver): pronounced loss of the drug
24 Hr. Mortality LD0.1 (mice [10]): 154 mg/kg

CCc1cccc(CC)c1NC(=O)C(C)N (centres unmarked) [2-amino-2', 6'-diethylpropionanilide, 2-amino-2',6'-diethylpropionanilide]
Relative Potency (ED50 test compound/ED50 lidocaine) [1]: 0.48 (0.27 -0.73)

CC(C)NCC(O)COc1cccc2ccccc12 (centres unmarked) [propranolol]
side effects (cardiac arrhythmias): exhibit undesirable side effects

Cc1cccc(C)c1NC(=O)CCN [3-amino-2', 6'-propionoxylidide, 3-amino-2',6'-propionoxylidide]
Relative Potency (ED50 test compound/ED50 lidocaine) [1]: 0.4 (0.2 - 0.8)

Cc1cc(C)c(NC(=O)CCN)c(C)c1 [3-amino-2', 4', 6'-propionomesidide, 3-amino-2',4',6'-propionomesidide]
pKa (pKa): 8.7 to 8.8

O=C1NC(=O)C(c2ccccc2)(c2ccccc2)N1 [diphenylhydantoin]
side effects (cardiac arrhythmias): exhibit undesirable side effects

C=C[C@H]1C[N@@]2CC[C@H]1C[C@@H]2[C@@H](O)c1ccnc2ccc(OC)cc12 [Quinidine]
side effects (cardiac arrhythmias): exhibit undesirable side effects
Proportion of mice having ataxia just before CHCl3 challenge (mice [3]; dose LD0.1, 20 min): 0/10
Proportion of mice having ataxia just before CHCl3 challenge (mice [3]; dose LD0.1, 40 min): 2/10
death (mice [3]; dose LD0.1, 40 min group): 1 death
death (mice [3]; dose LD0.1, 80 min group): 1 death
Proportion of mice protected against fibrillation at LD0.1 (ventricular fibrillation [4]; [14]): 10/10
Proportion of mice protected against fibrillation at LD0.1 (ventricular fibrillation [4]; [15]): 9/9
Proportion of mice protected against fibrillation at LD0.1 (ventricular fibrillation [4]; [16]): 9/9
24 Hr. Mortality LD0.1 (mice [10]): 348 mg/kg
LD50 at 24 h [5]: 382 mg/kg

CCc1cccc(C)c1NC(=O)CN [2-amino-2'-ethyl-6'-methyl acetanilide, 2-amino-2'-ethyl-6'-methylacetanilide]
Relative Potency (ED50 test compound/ED50 lidocaine) [1]: 0.27 (0.14 - 0.40)

Cc1cccc(C)c1NC(=O)CC(C)N (centres unmarked) [3-amino-2',6'-butyroxylidide]
adverse reactions (ventricular arrhythmias [11]; dog, in vivo, po): unaccompanied by any discernible adverse reactions
suppression of the ventricular arrhythmias (ventricular arrhythmias [11]; oral doses, dogs): distinct suppression of the ventricular arrhythmias
adverse reactions (ventricular arrhythmias [8]; dog, in vivo, iv): unaccompanied by any discernible adverse reactions
suppression of the ventricular arrhythmias (ventricular arrhythmias [8]; intravenous doses, dogs): distinct suppression of the ventricular arrhythmias
toxic side-effects (ventricular arrhythmias [8]; intravenous, antiarrhythmic doses, dogs (Table VI)): minimal toxic side-effects
Toxicity: Convulsions (ventricular arrhythmias [8]; intravenous, individual dogs): None
Toxicity: Deaths (ventricular arrhythmias [8]; intravenous, individual dogs): None
Relative Potency (ED50 test compound/ED50 lidocaine) [1]: 0.99 (0.60 - 1.9)
Percent of Population Protected (ventricular fibrillation [12]): 100%

Cc1cccc(C)c1NC(=O)[C@H](C)N [(+)-2-amino-2',6'-propionoxylidide]
Relative Potency (ED50 test compound/ED50 lidocaine) [1]: 0.11 (0.06 - 0.21)

— patent publication US4218477A, “Primary aminoacylanilides, methods of making the same and use as antiarrhythmic drugs” (priority 1976, dated 1980)
